Starred links: 1 amine or outer side, 2 acyl side, 3 side chain; linkers in the order of their positions; H or OH if unused. Non-standard residues stand in square brackets, D forms with d. Residues, ends and D or L forms follow the SMILES beside them. Groups on a side chain read outwards from the residue. *: point of attachment. C20 diacid = O=C(O)CCCCCCCCCCCCCCCCCCC(=O)*; C18 diacid = O=C(O)CCCCCCCCCCCCCCCCC(=O)*; γGlu = O=C(O)[C@H](CCC(=O)[*:2])N[*:1]; αMeF = C[C@](N)(Cc1ccccc1)C(=O)O; AEEA = NCCOCCOCC(=O)O; Aib = CC(C)(N)C(=O)O
How the values were obtained:
[1] = molecular target: human glucagon receptor (hGCGR) (Homo sapiens, UniProt P47871); assay: cAMP production (HTRF) in CHO cells expressing hGCGR; format: cell-based; parameters: expressed in transfected cells; details: Table 6, peptides modified at position 17; cAMP in CHO hGCGR cells; geometric mean; read-out: hGluc-R EC50
Procedure, shortened: (§1)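 Read-out: HTRF cAMP (anti-cAMP cryptate donor, cAMP-d2 acceptor in conjugate/lysis buffer), converted to % Delta F and fitted by 4-parameter logistic for EC50. Cell densities were 1×10^5 cells/mL (hGLP-1R) or 2×10^5 cells/mL (hGCGR). Stimulation lasted 30 min at room temperature.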

[2] = molecular target: human GLP-1 receptor (hGLP-1R) (Homo sapiens, UniProt P43220); assay: cAMP production (HTRF) in CHO cells expressing hGLP-1R; format: cell-based; parameters: expressed in transfected cells; details: for EC50: Table 6, peptides modified at position 17, cAMP in CHO hGLP-1R cells, geometric mean, read-out: hGLP-1R EC50; for % Relative Potency Ratio: Table 6, % GLP-1R activity relative to GLP-1 / % GlucR activity relative to glucagon
Procedure, shortened: as §1

Sequence of human glucagon receptor (hGCGR) (P47871 26-477): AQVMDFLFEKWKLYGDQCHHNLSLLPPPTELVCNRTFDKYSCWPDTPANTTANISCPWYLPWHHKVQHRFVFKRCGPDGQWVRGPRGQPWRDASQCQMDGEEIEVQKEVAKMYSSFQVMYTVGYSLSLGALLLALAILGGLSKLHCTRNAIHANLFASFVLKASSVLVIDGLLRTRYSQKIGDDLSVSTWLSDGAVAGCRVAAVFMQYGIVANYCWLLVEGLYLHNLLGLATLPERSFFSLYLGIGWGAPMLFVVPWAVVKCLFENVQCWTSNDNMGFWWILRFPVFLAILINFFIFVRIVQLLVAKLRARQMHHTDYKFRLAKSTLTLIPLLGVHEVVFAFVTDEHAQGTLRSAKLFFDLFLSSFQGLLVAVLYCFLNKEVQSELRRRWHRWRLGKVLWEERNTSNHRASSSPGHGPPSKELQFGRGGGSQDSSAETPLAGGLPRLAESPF
Sequence of human GLP-1 receptor (hGLP-1R) (P43220 24-463): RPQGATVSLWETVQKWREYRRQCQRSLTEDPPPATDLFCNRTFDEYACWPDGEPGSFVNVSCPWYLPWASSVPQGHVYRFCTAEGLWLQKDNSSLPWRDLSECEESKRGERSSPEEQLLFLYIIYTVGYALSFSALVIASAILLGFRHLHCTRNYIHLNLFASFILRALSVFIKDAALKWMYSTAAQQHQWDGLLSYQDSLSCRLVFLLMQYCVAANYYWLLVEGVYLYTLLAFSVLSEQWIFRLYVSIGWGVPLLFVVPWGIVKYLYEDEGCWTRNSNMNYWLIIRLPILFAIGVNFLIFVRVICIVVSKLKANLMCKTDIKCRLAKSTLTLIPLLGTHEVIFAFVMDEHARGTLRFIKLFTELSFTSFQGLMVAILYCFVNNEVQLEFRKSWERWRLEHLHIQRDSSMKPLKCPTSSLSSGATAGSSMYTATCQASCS

Structure (SMILES) | EC50 [1] [pM] | EC50 [2] [pM] | % Relative Potency Ratio [2]
CC[C@H](C)[C@H](NC(=O)C(C)(C)NC(=O)[C@H](CCC(N)=O)NC(=O)[C@@H](NC(=O)[C@](C)(Cc1ccccc1)NC(=O)[C@H](CC(=O)O)NC(=O)[C@H](CCC(N)=O)NC(=O)[C@H](C)NC(=O)[C@H](C)NC(=O)[C@H](CCCCNC(=O)COCCOCCNC(=O)COCCOCCNC(=O)CC[C@H](NC(=O)CC[C@H](NC(=O)CCCCCCCCCCCCCCCCCCC(=O)O)C(=O)O)C(=O)O)NC(=O)[C@H](CO)NC(=O)[C@H](CC(=O)O)NC(=O)[C@H](CC(C)C)NC(=O)[C@](C)(Cc1ccccc1)NC(=O)[C@H](CCCCN)NC(=O)[C@H](CO)NC(=O)[C@@H](NC(=O)[C@H](CC(=O)O)NC(=O)[C@H](CO)NC(=O)[C@@H](NC(=O)[C@](C)(Cc1ccccc1)NC(=O)[C@H](CO)NC(=O)CNC(=O)[C@H](Cc1c[nH]cn1)NC(=O)C(C)(C)NC(=O)[C@@H](N)Cc1c[nH]cn1)[C@@H](C)O)C(C)C)C(C)C)C(=O)N[C@@H](C)C(=O)N[C@@H](CC(N)=O)C(=O)N[C@H](C(N)=O)[C@@H](C)O [Peptide 25] (H-H[Aib]HGS[αMeF]TSDVSK[αMeF]LDSK([AEEA-AEEA-γGlu-γGlu-C20 diacid])AAQD[αMeF]VQ[Aib]IANT-NH2) | 1310 | 726 | 3.6
CC[C@H](C)[C@H](NC(=O)[C@H](Cc1c[nH]c2ccccc12)NC(=O)[C@H](CCC(N)=O)NC(=O)[C@@H](NC(=O)[C@](C)(Cc1ccccc1)NC(=O)[C@H](CC(=O)O)NC(=O)[C@H](CCC(N)=O)NC(=O)[C@H](C)NC(=O)[C@H](C)NC(=O)[C@H](CCCCNC(=O)COCCOCCNC(=O)COCCOCCNC(=O)CC[C@H](NC(=O)CCCCCCCCCCCCCCCCC(=O)O)C(=O)O)NC(=O)[C@H](CO)NC(=O)[C@H](CC(=O)O)NC(=O)[C@H](CC(C)C)NC(=O)[C@](C)(Cc1ccccc1)NC(=O)[C@H](CCCCN)NC(=O)[C@H](CO)NC(=O)[C@@H](NC(=O)[C@H](CC(=O)O)NC(=O)[C@H](CO)NC(=O)[C@@H](NC(=O)[C@](C)(Cc1ccccc1)NC(=O)[C@H](CO)NC(=O)CNC(=O)[C@H](CCC(N)=O)NC(=O)C(C)(C)NC(=O)[C@@H](N)Cc1c[nH]cn1)[C@@H](C)O)C(C)C)C(C)C)C(=O)N[C@@H](C)C(=O)N[C@@H](CC(N)=O)C(N)=O [Peptide 26] (H-H[Aib]QGS[αMeF]TSDVSK[αMeF]LDSK([AEEA-AEEA-γGlu-C18 diacid])AAQD[αMeF]VQWIAN-NH2) | 8900 | 80.6 | 218.5
CC[C@H](C)[C@H](NC(=O)[C@H](Cc1c[nH]c2ccccc12)NC(=O)[C@H](CCC(=O)O)NC(=O)[C@@H](NC(=O)[C@](C)(Cc1ccccc1)NC(=O)[C@H](CC(=O)O)NC(=O)[C@H](CCC(N)=O)NC(=O)[C@H](C)NC(=O)[C@H](C)NC(=O)[C@H](CCCCNC(=O)COCCOCCNC(=O)COCCOCCNC(=O)CC[C@H](NC(=O)CCCCCCCCCCCCCCCCC(=O)O)C(=O)O)NC(=O)[C@H](CO)NC(=O)[C@H](CC(=O)O)NC(=O)[C@H](CC(C)C)NC(=O)[C@](C)(Cc1ccccc1)NC(=O)[C@H](CCCCN)NC(=O)[C@H](CO)NC(=O)[C@@H](NC(=O)[C@H](CC(=O)O)NC(=O)[C@H](CO)NC(=O)[C@@H](NC(=O)[C@](C)(Cc1ccccc1)NC(=O)[C@H](CO)NC(=O)CNC(=O)[C@H](CCC(N)=O)NC(=O)C(C)(C)NC(=O)[C@@H](N)Cc1c[nH]cn1)[C@@H](C)O)C(C)C)C(C)C)C(=O)N[C@@H](C)C(=O)N[C@@H](CC(N)=O)C(N)=O [Peptide 27] (H-H[Aib]QGS[αMeF]TSDVSK[αMeF]LDSK([AEEA-AEEA-γGlu-C18 diacid])AAQD[αMeF]VEWIAN-NH2; N-terminus assumed) | 1440 | 18.2 | 156.4
CC(C)C[C@H](NC(=O)[C@H](Cc1c[nH]c2ccccc12)NC(=O)[C@H](CCCNC(=N)N)NC(=O)[C@@H](NC(=O)[C@H](Cc1ccccc1)NC(=O)[C@H](CC(=O)O)NC(=O)[C@H](CCC(N)=O)NC(=O)[C@H](C)NC(=O)[C@H](CCCNC(=N)N)NC(=O)[C@H](CCCCNC(=O)COCCOCCNC(=O)COCCOCCNC(=O)CC[C@H](NC(=O)CCCCCCCCCCCCCCCCC(=O)O)C(=O)O)NC(=O)[C@H](CO)NC(=O)[C@H](CC(=O)O)NC(=O)[C@H](CC(C)C)NC(=O)[C@](C)(Cc1ccccc1)NC(=O)[C@H](CCCCN)NC(=O)[C@H](CO)NC(=O)[C@@H](NC(=O)[C@H](CC(=O)O)NC(=O)[C@H](CO)NC(=O)[C@@H](NC(=O)[C@H](Cc1ccccc1)NC(=O)[C@@H](NC(=O)CNC(=O)[C@H](CCC(N)=O)NC(=O)C(C)(C)NC(=O)[C@@H](N)Cc1c[nH]cn1)[C@@H](C)O)[C@@H](C)O)C(C)C)C(C)C)C(=O)N[C@@H](CC(C)C)C(=O)NC(C)(C)C(=O)N[C@H](C(=O)O)[C@@H](C)O [Peptide 28] (H-H[Aib]QGTFTSDVSK[αMeF]LDSK([AEEA-AEEA-γGlu-C18 diacid])RAQDFVRWLL[Aib]T-OH) | 260 | 129 | 4.0
CC(C)C[C@H](NC(=O)[C@H](Cc1c[nH]c2ccccc12)NC(=O)[C@H](CCC(N)=O)NC(=O)[C@@H](NC(=O)[C@H](Cc1ccccc1)NC(=O)[C@H](CC(=O)O)NC(=O)C(C)(C)NC(=O)[C@H](C)NC(=O)[C@H](CCCNC(=N)N)NC(=O)[C@H](CCCCNC(=O)COCCOCCNC(=O)COCCOCCNC(=O)CC[C@H](NC(=O)CCCCCCCCCCCCCCCCC(=O)O)C(=O)O)NC(=O)[C@H](CO)NC(=O)[C@H](CC(=O)O)NC(=O)[C@H](CC(C)C)NC(=O)[C@](C)(Cc1ccccc1)NC(=O)[C@H](CCCCN)NC(=O)[C@H](CO)NC(=O)[C@@H](NC(=O)[C@H](CC(=O)O)NC(=O)[C@H](CO)NC(=O)[C@@H](NC(=O)[C@H](Cc1ccccc1)NC(=O)[C@@H](NC(=O)CNC(=O)[C@H](CCC(N)=O)NC(=O)C(C)(C)NC(=O)[C@@H](N)Cc1c[nH]cn1)[C@@H](C)O)[C@@H](C)O)C(C)C)C(C)C)C(=O)N[C@@H](CC(C)C)C(=O)NC(C)(C)C(=O)N[C@H](C(=O)O)[C@@H](C)O [Peptide 29] (H-H[Aib]QGTFTSDVSK[αMeF]LDSK([AEEA-AEEA-γGlu-C18 diacid])RA[Aib]DFVQWLL[Aib]T-OH; N-terminus assumed) | 629 | 107 | 11.7
CC(C)C[C@H](NC(=O)[C@H](Cc1c[nH]c2ccccc12)NC(=O)[C@H](CCCNC(=N)N)NC(=O)[C@@H](NC(=O)[C@H](Cc1ccccc1)NC(=O)[C@H](CC(=O)O)NC(=O)[C@H](CCC(N)=O)NC(=O)[C@H](C)NC(=O)[C@H](CCCNC(=N)N)NC(=O)[C@H](CCCCNC(=O)COCCOCCNC(=O)COCCOCCNC(=O)CC[C@H](NC(=O)CCCCCCCCCCCCCCCCC(=O)O)C(=O)O)NC(=O)[C@H](CO)NC(=O)[C@H](CC(=O)O)NC(=O)[C@H](CC(C)C)NC(=O)[C@](C)(Cc1ccccc1)NC(=O)[C@H](CCCCN)NC(=O)[C@H](CO)NC(=O)[C@@H](NC(=O)[C@H](CC(=O)O)NC(=O)[C@H](CO)NC(=O)[C@@H](NC(=O)[C@H](Cc1ccccc1)NC(=O)[C@@H](NC(=O)CNC(=O)[C@H](CCC(N)=O)NC(=O)C(C)(C)NC(=O)[C@@H](N)Cc1c[nH]cn1)[C@@H](C)O)[C@@H](C)O)C(C)C)C(C)C)C(=O)N[C@@H](CC(C)C)C(=O)NC(C)(C)C(=O)N[C@H](C(=O)NCC(=O)O)[C@@H](C)O [Peptide 30] (H-H[Aib]QGTFTSDVSK[αMeF]LDSK([AEEA-AEEA-γGlu-C18 diacid])RAQDFVRWLL[Aib]TG-OH; N-terminus assumed) | 235 | 52.7 | 8.8
CC(C)C[C@H](NC(=O)[C@H](Cc1c[nH]c2ccccc12)NC(=O)[C@H](CCCNC(=N)N)NC(=O)[C@@H](NC(=O)[C@H](Cc1ccccc1)NC(=O)[C@H](CC(=O)O)NC(=O)[C@H](CCC(N)=O)NC(=O)[C@H](C)NC(=O)[C@H](CCCNC(=N)N)NC(=O)[C@H](CCCCNC(=O)COCCOCCNC(=O)COCCOCCNC(=O)CC[C@H](NC(=O)CCCCCCCCCCCCCCCCC(=O)O)C(=O)O)NC(=O)[C@H](CO)NC(=O)[C@H](CC(=O)O)NC(=O)[C@H](CC(C)C)NC(=O)[C@](C)(Cc1ccccc1)NC(=O)[C@H](CCCCN)NC(=O)[C@H](CO)NC(=O)[C@@H](NC(=O)[C@H](CC(=O)O)NC(=O)[C@H](CO)NC(=O)[C@@H](NC(=O)[C@H](Cc1ccccc1)NC(=O)[C@@H](NC(=O)CNC(=O)[C@H](CCC(N)=O)NC(=O)C(C)(C)NC(=O)[C@@H](N)Cc1c[nH]cn1)[C@@H](C)O)[C@@H](C)O)C(C)C)C(C)C)C(=O)N[C@@H](CC(C)C)C(=O)N[C@@H](CCC(=O)O)C(=O)NC(C)(C)C(=O)NCC(=O)O [Peptide 31] (H-H[Aib]QGTFTSDVSK[αMeF]LDSK([AEEA-AEEA-γGlu-C18 diacid])RAQDFVRWLLE[Aib]G-OH; N-terminus assumed) | 56.8 | 41.3 | 2.7
CC[C@H](C)[C@H](NC(=O)[C@H](Cc1c[nH]c2ccccc12)NC(=O)[C@H](CCC(N)=O)NC(=O)[C@@H](NC(=O)[C@H](Cc1ccccc1)NC(=O)[C@H](CC(=O)O)NC(=O)C(C)(C)NC(=O)[C@H](C)NC(=O)[C@H](CCCNC(=N)N)NC(=O)[C@H](CCCCNC(=O)CC[C@H](NC(=O)CCCCCCCCCCCCCCCCC(=O)O)C(=O)O)NC(=O)[C@H](CO)NC(=O)[C@H](CC(=O)O)NC(=O)[C@H](CC(C)C)NC(=O)[C@](C)(Cc1ccccc1)NC(=O)[C@H](CCCCN)NC(=O)[C@H](CO)NC(=O)[C@@H](NC(=O)[C@H](CC(=O)O)NC(=O)[C@H](CO)NC(=O)[C@@H](NC(=O)[C@H](Cc1ccccc1)NC(=O)[C@@H](NC(=O)CNC(=O)[C@H](CCC(N)=O)NC(=O)C(C)(C)NC(=O)[C@@H](N)Cc1c[nH]cn1)[C@@H](C)O)[C@@H](C)O)C(C)C)C(C)C)C(=O)N[C@@H](C)C(=O)N[C@@H](CC(N)=O)C(=O)N[C@H](C(N)=O)[C@@H](C)O [Peptide 32] (H-H[Aib]QGTFTSDVSK[αMeF]LDSK([γGlu-C18 diacid])RA[Aib]DFVQWIANT-NH2; N-terminus assumed) | 240 | 13 | 36.7
